Reference: PubChem BioAssay AID248 (DTP/NCI, 2004)
Several values for one entry are separate records, joined by “and”; a condition that tells them apart may be missing. Identical values can stand only once. Inconclusive results and toxic doses are left out.

Test system: L1210 leukemia ip in BDF1 mice, survival T/C
Experiment: NCI In Vivo Anticancer Drug Screen. Data for tumor model L1210 Leukemia (intraperitoneal) in B6D2F1 (BDF1) mice
Conditions: endpoint: mean survival time, higher = longer survival
Outline: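 In this screen, tumor-bearing mice given compound are compared to those given vehicle, and their survival values are reported as a treated-to-control quotient.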

[1] = dose: 100.0 mg/kg/injection, schedule: Q01DX001 (ip), vehicle: saline
[2] = dose: 200.0 mg/kg/injection, schedule: Q01DX001 (ip), vehicle: saline
[3] = dose: 400.0 mg/kg/injection, schedule: Q01DX001 (ip), vehicle: saline
[4] = dose: 100.0 mg/kg/injection, schedule: Q01DX001 (ip), vehicle: carboxymethylcellulose (CMC)
[5] = dose: 200.0 mg/kg/injection, schedule: Q01DX001 (ip), vehicle: carboxymethylcellulose (CMC)
[6] = dose: 400.0 mg/kg/injection, schedule: Q01DX001 (ip), vehicle: carboxymethylcellulose (CMC)

CC(=O)OC1C(C(N)=O)CC(C(=O)O)C1OC(C)=O (centres undefined)
T/C [1]: 112 % of control
T/C [2]: 114 % of control
T/C [3]: 106 % of control

CNC(=O)NC1CCC(C)CC1 (centres undefined)
T/C [1]: 95 % of control
T/C [2]: 95 % of control
T/C [3]: 97 % of control

O=C1C(=O)c2ccccc2C(O)=C1CN1CCC1
T/C (dose: 100.0 mg/kg/injection, schedule: Q01DX001 (ip), vehicle: saline with Tween-80): 95 % of control
T/C (dose: 200.0 mg/kg/injection, schedule: Q01DX001 (ip), vehicle: saline with Tween-80): 95 % of control

CCN(CC)CCCN(C)C(=O)C(O)(c1ccccc1)c1ccccc1
T/C (dose: 25.0 mg/kg/injection, schedule: Q01DX001 (ip), vehicle: saline): 102 % of control
T/C (dose: 50.0 mg/kg/injection, schedule: Q01DX001 (ip), vehicle: saline): 97 % of control
T/C [1]: 102 % of control

NOCc1cnccn1
T/C (dose: 75.0 mg/kg/injection, schedule: Q01DX001 (ip), vehicle: saline): 92 % of control
T/C (dose: 150.0 mg/kg/injection, schedule: Q01DX001 (ip), vehicle: saline): 96 % of control
T/C (dose: 300.0 mg/kg/injection, schedule: Q01DX001 (ip), vehicle: saline): 88 % of control

COC(=O)Cc1ccc([N+](=O)[O-])cc1
T/C [4]: 94 % of control
T/C [5]: 91 % of control
T/C [6]: 88 % of control

CCOC(=O)OC1CC/C(=N\N=C(N)N)C1 (centres undefined)
T/C (dose: 15.0 mg/kg/injection, schedule: Q01DX Z (ip), vehicle: methylcellulose (MC)): 110 % of control
T/C (dose: 30.0 mg/kg/injection, schedule: Q01DX Z (ip), vehicle: methylcellulose (MC)): 96 % of control
T/C (dose: 120.0 mg/kg/injection, schedule: Q01DX Z (ip), vehicle: methylcellulose (MC)): 92 % of control

CC(=O)NC1CON(C(C)=O)C1=O (centres undefined)
T/C (dose: 100.0 mg/kg/injection, schedule: Q04DX003 (ip), vehicle: Klucel (hydroxypropylcellulose) (HPC)): 97 % of control
T/C (dose: 200.0 mg/kg/injection, schedule: Q04DX003 (ip), vehicle: Klucel (hydroxypropylcellulose) (HPC)): 103 % of control
T/C (dose: 400.0 mg/kg/injection, schedule: Q04DX003 (ip), vehicle: Klucel (hydroxypropylcellulose) (HPC)): 103 % of control

Cc1cccc(C(=O)OCc2ccccc2CN2CCCCC2C)c1 (centres undefined)
T/C (dose: 100.0 mg/kg/injection, schedule: Q01DX001 (ip), vehicle: Klucel (hydroxypropylcellulose) (HPC)): 93 % of control
T/C (dose: 200.0 mg/kg/injection, schedule: Q01DX001 (ip), vehicle: Klucel (hydroxypropylcellulose) (HPC)): 93 % of control

C=C1C(=O)O[C@@H]2[C@H]1CC[C@H](C)[C@@H]1CCC(=O)[C@@]21C
T/C [1]: 102 % of control
T/C [2]: 100 % of control
T/C [3]: 98 % of control

C=C1C(=O)O[C@H]2C[C@@H](C)[C@@H]3CC(=O)OC[C@@]3(C)CC12 (some centres undefined)
T/C (dose: 25.0 mg/kg/injection, schedule: Q01DX009 (ip), vehicle: saline with Tween-80): 108 % of control
T/C (dose: 25.0 mg/kg/injection, schedule: Q04DX003 (ip), vehicle: saline with Tween-80): 99 % of control
T/C (dose: 50.0 mg/kg/injection, schedule: Q01DX009 (ip), vehicle: saline with Tween-80): 105 % of control
T/C (dose: 50.0 mg/kg/injection, schedule: Q04DX003 (ip), vehicle: saline with Tween-80): 105 % of control
T/C (dose: 100.0 mg/kg/injection, schedule: Q01DX009 (ip), vehicle: saline with Tween-80): 101 % of control
T/C (dose: 100.0 mg/kg/injection, schedule: Q04DX003 (ip), vehicle: saline with Tween-80): 93 % of control and 103 % of control

O=C(O)C1CC12c1ccccc1-c1ccccc12 (centres undefined)
T/C [1]: 92 % of control
T/C [2]: 95 % of control

N#CCCN1CCCSC1=S
T/C (dose: 75.0 mg/kg/injection, schedule: Q01DX001 (ip), vehicle: other): 109 % of control
T/C (dose: 150.0 mg/kg/injection, schedule: Q01DX001 (ip), vehicle: other): 115 % of control
T/C (dose: 300.0 mg/kg/injection, schedule: Q01DX001 (ip), vehicle: other): 113 % of control

CC1(C)CC(N)CC(C)(C)N1
T/C (dose: 50.0 mg/kg/injection, schedule: Q01DX001 (ip), vehicle: carboxymethylcellulose (CMC)): 107 % of control
T/C [4]: 103 % of control

CCSCCC1(CCC(C)C)C(=O)NC(=Nc2ccccc2)NC1=O (centres undefined)
T/C [4]: 90 % of control
T/C [5]: 88 % of control
T/C [6]: 96 % of control
